# Laboratory results published in PMC9558223, “Staphylococcus aureus is able to generate resistance to novel lipoglycopeptide antibiotic gausemycin A” (Frontiers in Microbiology, 2022).
# Where two headings read alike, the source gives them in different places. Where no end group is shown, it is not given here.
# How the values were obtained:
# [1] = tested on: S. aureus 5812R; assay: microbe, parasite or virus in culture; type: cell-based, Staphylococcus aureus; settings: for MIC: 24 h; for Cross-resistance of S. aureus 5812R: susceptibility testing of gausemycin A-resistant strain; for Change of MIC / resistance of S. aureus 5812R compared to parent strain S. aureus FDA209P: ratio of MIC for 5812R and FDA209P
# Description: (§1) Minimal inhibitory concentration (MIC) was determined as previously described in Fuchs et al. ([2000]), following the Clinical and Laboratory Standards Institute (CLSI) guidelines for broth microdilution MIC assay. The bacteria were incubated in a 96-well microtiter plate (Eppendorf, Germany) containing 90 μL of inoculum prepared in growth media at 10^6 CFU/ml with 10 μL of twofold dilutions of the antibiotics. The results were evaluated after 24 h of cultivation at 37 °C. The bacterial growth was assessed by scanning the absorbance data at 600 nm obtained by spectrophotometer (Multiscan GO, Thermo Fisher Scientific, US).
# [2] = tested on: S. aureus FDA209P; assay: microbe, parasite or virus in culture; type: cell-based, Staphylococcus aureus; settings: broth microdilution (CLSI), 10^6 CFU/ml, 24 h, 37 °C, absorbance at 600 nm
# Description: as §1
# [3] = Staphylococcus aureus, read-out: MIC
# [4] = S. aureus 5812R, broth microdilution (CLSI), 10^6 CFU/ml, 37 °C, absorbance at 600 nm
Compound,"MIC ([1]; Staphylococcus aureus, 5812R) [mg/L]",Cross-resistance of S. aureus 5812R [1],"MIC [2, 3] [mg/L]","MIC [1, 4] [mg/L]",Change of MIC / resistance of S. aureus 5812R compared to parent strain S. aureus FDA209P [1],MIC [2] [mg/L]
Cc1nnc(SCC2=C(C(=O)O)N3C(=O)[C@@H](NC(=O)Cn4cnnn4)[C@H]3SC2)s1 [Cefazolin],0.4,cross-resistance,0.2,,,
CN(C)[C@@H]1C(O)=C(C(N)=O)C(=O)[C@@]2(O)C(O)=C3C(=O)c4c(O)cccc4[C@@](C)(O)[C@H]3C[C@@H]12 [Tetracycline],0.94,cross-resistance,0.47,,,
CN[C@H](CC(C)C)C(=O)N[C@H]1C(=O)N[C@@H](CC(N)=O)C(=O)N[C@H]2C(=O)N[C@H]3C(=O)N[C@H](C(=O)N[C@H](C(=O)O)c4cc(O)cc(O)c4-c4cc3ccc4O)[C@H](O)c3ccc(c(Cl)c3)Oc3cc2cc(c3O[C@@H]2O[C@H](CO)[C@@H](O)[C@H](O)[C@H]2O[C@H]2C[C@](C)(N)[C@H](O)[C@H](C)O2)Oc2ccc(cc2Cl)[C@H]1O [Vancomycin],,absent,,0.78,did not differ,0.78
"Nisin (ITSISLCTPGCKTGALMGCNMKTATCHCSIHVSK; not fully specified (some residues, bridges); cysteine pairing not given here; UniProt P13068 24-57, looked up)",,absent,,7.8,did not differ,7.8
